{"source": "patent US10702534B2", "about": "“Compositions and methods relating to the radioprotective effects of apilimod” (priority 2017, dated 2020)", "system": "acutely irradiated mice", "assay": "Prevention of radiation-induced mortality in mice after 8.5 Gy total body irradiation (survival analysis)", "assay_type": "in vivo, C57B1/6 male mice", "excerpt": "Eighty-six (86) C57B1/6 male mice were randomized into 6 groups. Group 1 (n=6) served as the untreated control group (no apilimod dimesylate or radiation). Animals in Groups 2-6 (n=16/group) were exposed to an 8.5 Gy dose of total body irradiation on Day 0. Radiation was generated with a 160 kilovolt potential (18-ma) source at a focal distance of 25 cm, hardened with a 0.35 mm A1 filtration system. Irradiation targeted the total body at a rate of approximately 1.0 Gy/minute. The total radiation dose and dose rate was measured in real time with a Farmer-type ionization chamber and a Fluke 35040 ATD dosimeter. No anesthesia was used during irradiation. Animals were monitored for survival twice daily and those that lost greater than 30% of their total starting body weight were euthanized. Animals in Groups 2 through 6 were dosed with apilimod dimesylate or vehicle exactly 3 hrs prior to radiation on Day 0 via oral gavage (PO) or intraperitoneal injection (IP) as indicated in Table 1 below. All animals were given ad libitum access to acidified drinking (pH 2.8-3.0) water from Day 3 through study completion."}
{"compound": "Cc1cccc(/C=N/Nc2cc(N3CCOCC3)nc(OCCc3ccccn3)n2)c1", "note": "[apilimod dimesylate]", "values": [{"measurement": "percentage of surviving animals", "setting": "60 mg/kg i.p. single dose 3 hrs prior to 8.5 Gy TBI, study to Day 31, vehicle 6.25%", "result": 43.75, "unit": "%"}, {"measurement": "median time of survival", "setting": "60 mg/kg i.p. single dose 3 hrs prior to 8.5 Gy TBI, vehicle 13.5 days", "result": 21, "unit": "days"}, {"measurement": "survival (survival analysis, in words)", "setting": "180 mg/kg p.o. single dose 3 hrs prior to 8.5 Gy TBI, did not reach statistical significance", "result": "trend towards increased survival"}, {"measurement": "survival protection (survival analysis, in words)", "setting": "delivered by intraperitoneal injection, 60 mg/kg, 3 hrs prior to 8.5 Gy TBI", "result": "significant survival protection"}]}
